Calls of active or inactive are those of the source.
What was measured:
Hexokinase = Hexokinase (Trypanosoma brucei, UniProt Q38C41); test: Confirmation assay for inhibitors of Trypanosoma brucei hexokinase 1-Analogue-first series. [Related pubchem assays (depositor defined):AID1430, AID1632, AID2516, AID2560, AID2579, AID2600, AID449725, AID492951]; type: functional
[1] = target: T1, RNA-binding protein pos-1 (Caenorhabditis elegans, UniProt G5EF15); test: inhibitors of POS-1/mex-3 RNA binding, dose response, biochemical, fluorescence polarization (AID 1964);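 further: purified POS-1 fused to maltose binding protein made in E. coli; potency of compounds blocking POS-1 binding to fluorescent RNA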
T1 sequence (G5EF15 whole entry): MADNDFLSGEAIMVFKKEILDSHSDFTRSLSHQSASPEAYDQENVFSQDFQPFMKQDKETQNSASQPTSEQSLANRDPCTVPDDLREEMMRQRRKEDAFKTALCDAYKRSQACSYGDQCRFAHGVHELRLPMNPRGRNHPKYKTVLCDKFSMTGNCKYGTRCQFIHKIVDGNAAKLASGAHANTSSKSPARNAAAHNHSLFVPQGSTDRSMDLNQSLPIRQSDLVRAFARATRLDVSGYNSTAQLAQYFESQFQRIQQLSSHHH

[2] = target: Neurotensin receptor type 1 (Homo sapiens, UniProt P30989); type: functional;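 further: Image-based confirmatory dose-response assay measuring agonist activity at NTR1; NTR1-expressing U2OS osteosarcoma cells imaged for beta-arrestin GFP spot formation; agonist potency where compounds increase beta-arrestin recruitment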
Neurotensin receptor type 1, sequence (P30989 whole entry): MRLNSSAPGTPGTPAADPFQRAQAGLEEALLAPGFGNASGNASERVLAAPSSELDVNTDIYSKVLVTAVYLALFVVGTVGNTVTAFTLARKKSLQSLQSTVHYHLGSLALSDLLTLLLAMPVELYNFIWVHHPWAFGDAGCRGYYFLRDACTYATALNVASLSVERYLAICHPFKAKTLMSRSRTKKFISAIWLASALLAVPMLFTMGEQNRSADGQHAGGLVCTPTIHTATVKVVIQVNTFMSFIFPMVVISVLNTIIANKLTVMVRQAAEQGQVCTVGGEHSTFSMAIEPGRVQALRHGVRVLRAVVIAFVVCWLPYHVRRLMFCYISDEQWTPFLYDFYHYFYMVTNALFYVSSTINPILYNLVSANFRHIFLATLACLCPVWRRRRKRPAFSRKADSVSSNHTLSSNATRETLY

[3] = target: T2, Zinc finger protein mex-5 (Caenorhabditis elegans, UniProt Q9XUB2); test: MEX-5/TCR-2 RNA interaction inhibitors, dose response, biochemical, C. elegans, fluorescence polarization (AID 1960)
T2 sequence (Q9XUB2 whole entry): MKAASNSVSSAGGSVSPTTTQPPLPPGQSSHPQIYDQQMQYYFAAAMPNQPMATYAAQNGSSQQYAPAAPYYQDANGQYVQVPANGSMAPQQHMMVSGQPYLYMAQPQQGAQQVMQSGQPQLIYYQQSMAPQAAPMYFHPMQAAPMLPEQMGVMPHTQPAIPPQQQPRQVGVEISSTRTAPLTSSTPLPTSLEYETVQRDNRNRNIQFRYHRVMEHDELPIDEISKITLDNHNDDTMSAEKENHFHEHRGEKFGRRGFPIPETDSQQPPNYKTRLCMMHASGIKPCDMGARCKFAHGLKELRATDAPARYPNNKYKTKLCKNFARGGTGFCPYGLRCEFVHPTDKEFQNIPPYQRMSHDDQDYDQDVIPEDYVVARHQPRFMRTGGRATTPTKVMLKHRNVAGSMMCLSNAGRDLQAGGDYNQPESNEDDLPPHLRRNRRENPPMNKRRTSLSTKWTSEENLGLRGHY

[4] = target: T3, Endoribonuclease toxin MazF (Escherichia coli K-12, UniProt P0AE70); test: MazF toxin RNase activators, dose response, biochemical, fluorescence, single-stranded RNA substrate, uHTS hits (AID 588481); type: functional
T3 sequence (P0AE70 whole entry): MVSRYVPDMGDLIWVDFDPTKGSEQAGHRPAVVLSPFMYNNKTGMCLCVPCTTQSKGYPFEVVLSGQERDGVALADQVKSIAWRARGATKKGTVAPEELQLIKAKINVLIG

[5] = target: G-protein coupled receptor 55 (Homo sapiens, UniProt Q9Y2T6); test: GPR55 agonists via beta-arrestin recruitment, primary screen, imaging, U2OS cells, beta-arrestin-GFP redistribution (AID 1961); type: functional
G-protein coupled receptor 55, sequence (Q9Y2T6 whole entry): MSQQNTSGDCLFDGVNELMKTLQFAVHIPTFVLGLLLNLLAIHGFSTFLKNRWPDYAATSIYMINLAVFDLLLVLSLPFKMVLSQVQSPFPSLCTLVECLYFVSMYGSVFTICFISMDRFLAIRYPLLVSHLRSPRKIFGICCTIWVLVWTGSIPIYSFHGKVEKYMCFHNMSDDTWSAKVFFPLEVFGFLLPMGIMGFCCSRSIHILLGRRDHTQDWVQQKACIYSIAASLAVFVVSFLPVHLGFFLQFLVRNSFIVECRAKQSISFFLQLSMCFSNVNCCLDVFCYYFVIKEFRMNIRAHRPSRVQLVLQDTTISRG

[6] = target: T3, Endoribonuclease toxin MazF; test: fluorescent RNA oligo signal without MazF, dose response, counter-screen for MazEF activator project, biochemical, fluorescence, single-stranded RNase substrate (AID 588502); type: functional
[7] = target: T4, Intestinal-type alkaline phosphatase (Homo sapiens, UniProt P09923); test: human IAP activators, dose response, biochemical, luminescent, uHTS hits, set 2 (AID 488817); type: functional;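 further: potency of activators that raise enzyme activity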
T4 sequence (P09923 whole entry): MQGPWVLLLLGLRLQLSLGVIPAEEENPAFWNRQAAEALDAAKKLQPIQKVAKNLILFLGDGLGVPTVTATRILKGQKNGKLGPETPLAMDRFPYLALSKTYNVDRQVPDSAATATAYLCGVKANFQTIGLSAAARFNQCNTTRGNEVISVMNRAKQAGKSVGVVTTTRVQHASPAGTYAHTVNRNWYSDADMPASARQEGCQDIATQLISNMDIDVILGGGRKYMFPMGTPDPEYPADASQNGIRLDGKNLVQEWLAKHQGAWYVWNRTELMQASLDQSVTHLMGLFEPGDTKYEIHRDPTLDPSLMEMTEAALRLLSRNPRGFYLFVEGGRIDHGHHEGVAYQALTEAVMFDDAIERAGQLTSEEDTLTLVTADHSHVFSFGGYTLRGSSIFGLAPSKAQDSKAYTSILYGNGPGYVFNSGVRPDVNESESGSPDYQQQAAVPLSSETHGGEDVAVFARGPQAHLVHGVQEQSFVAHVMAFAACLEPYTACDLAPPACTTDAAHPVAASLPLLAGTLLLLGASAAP

[8] = target: T4, Intestinal-type alkaline phosphatase; test: human intestinal alkaline phosphatase activators, dose response, biochemical, luminescence, uHTS hits (AID 463120); type: functional
[9] = target: Intestinal-type alkaline phosphatase (Mus musculus, UniProt P24822); test: PubChem AID 488875; type: functional
Intestinal-type alkaline phosphatase (Mus musculus, UniProt P24822), sequence (P24822 whole entry): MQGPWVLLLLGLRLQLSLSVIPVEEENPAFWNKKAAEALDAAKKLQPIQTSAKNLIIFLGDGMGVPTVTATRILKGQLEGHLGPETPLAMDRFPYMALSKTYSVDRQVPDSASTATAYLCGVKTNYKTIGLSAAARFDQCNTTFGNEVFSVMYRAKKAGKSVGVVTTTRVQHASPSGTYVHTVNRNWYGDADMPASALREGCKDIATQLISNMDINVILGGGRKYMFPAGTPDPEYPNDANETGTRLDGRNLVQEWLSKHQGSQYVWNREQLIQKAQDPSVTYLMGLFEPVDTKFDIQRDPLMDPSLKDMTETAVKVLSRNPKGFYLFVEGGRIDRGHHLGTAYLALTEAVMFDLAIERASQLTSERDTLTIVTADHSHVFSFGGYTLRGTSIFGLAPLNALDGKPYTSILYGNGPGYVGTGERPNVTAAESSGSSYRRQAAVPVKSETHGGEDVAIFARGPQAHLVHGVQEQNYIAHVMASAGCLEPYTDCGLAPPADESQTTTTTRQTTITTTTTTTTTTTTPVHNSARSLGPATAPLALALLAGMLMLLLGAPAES

[10] = target: T5, Alkaline phosphatase, tissue-nonspecific isozyme (Homo sapiens, UniProt P05186); test: TNAP enzyme activators, dose response, selectivity assay for human IAP activator project, biochemical, TNAP isozyme, human IAP uHTS hits (AID 488886); type: functional;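 further: potency of compounds raising TNAP activity as a selectivity check on IAP activators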
T5 sequence (P05186 whole entry): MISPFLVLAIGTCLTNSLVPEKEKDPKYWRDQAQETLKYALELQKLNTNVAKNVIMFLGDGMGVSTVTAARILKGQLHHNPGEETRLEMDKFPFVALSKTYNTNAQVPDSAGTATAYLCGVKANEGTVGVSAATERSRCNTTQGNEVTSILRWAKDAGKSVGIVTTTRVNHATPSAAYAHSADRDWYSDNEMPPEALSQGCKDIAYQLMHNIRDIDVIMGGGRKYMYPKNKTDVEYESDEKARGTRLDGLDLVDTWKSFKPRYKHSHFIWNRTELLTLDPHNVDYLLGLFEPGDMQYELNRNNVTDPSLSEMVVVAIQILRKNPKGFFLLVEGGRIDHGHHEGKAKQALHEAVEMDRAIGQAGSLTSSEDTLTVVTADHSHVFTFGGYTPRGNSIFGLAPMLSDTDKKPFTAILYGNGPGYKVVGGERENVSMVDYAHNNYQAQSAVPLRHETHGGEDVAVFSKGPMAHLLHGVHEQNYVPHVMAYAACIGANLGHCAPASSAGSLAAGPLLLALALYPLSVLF

[11] = target: Dual specificity protein phosphatase 3 (Homo sapiens, UniProt P51452); test: SAR VHR1 Fluorescent Assay for In Vitro dose response studies. [Related pubchem assays (depositor defined):AID1654, AID1661, AID1878, AID1992, AID2004, AID2070, AID2085]; type: functional
Dual specificity protein phosphatase 3, sequence (P51452 whole entry): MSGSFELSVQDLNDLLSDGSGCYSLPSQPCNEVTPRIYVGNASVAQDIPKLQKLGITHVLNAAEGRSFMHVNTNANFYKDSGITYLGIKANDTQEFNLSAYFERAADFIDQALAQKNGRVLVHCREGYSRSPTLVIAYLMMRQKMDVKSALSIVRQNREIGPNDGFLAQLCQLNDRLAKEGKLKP

[12] = target: Glyceraldehyde-3-phosphate dehydrogenase (Homo sapiens, UniProt P04406)
Glyceraldehyde-3-phosphate dehydrogenase, sequence (P04406 whole entry): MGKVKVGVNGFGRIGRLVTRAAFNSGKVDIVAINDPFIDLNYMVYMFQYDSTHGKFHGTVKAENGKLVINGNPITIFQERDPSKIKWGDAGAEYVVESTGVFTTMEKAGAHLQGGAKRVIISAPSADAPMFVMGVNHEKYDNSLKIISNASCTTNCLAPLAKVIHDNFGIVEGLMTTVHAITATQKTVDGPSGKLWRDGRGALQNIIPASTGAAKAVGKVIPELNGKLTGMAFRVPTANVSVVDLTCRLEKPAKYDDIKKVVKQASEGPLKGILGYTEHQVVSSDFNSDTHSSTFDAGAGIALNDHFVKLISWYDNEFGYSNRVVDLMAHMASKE

[13] = target: Heat shock cognate 71 kDa protein (Homo sapiens, UniProt P11142); test: In Vitro Hsc70 Dose Response Fluorescence Polarization Assay. [Related pubchem assays: 1072 ]
Heat shock cognate 71 kDa protein, sequence (P11142 whole entry): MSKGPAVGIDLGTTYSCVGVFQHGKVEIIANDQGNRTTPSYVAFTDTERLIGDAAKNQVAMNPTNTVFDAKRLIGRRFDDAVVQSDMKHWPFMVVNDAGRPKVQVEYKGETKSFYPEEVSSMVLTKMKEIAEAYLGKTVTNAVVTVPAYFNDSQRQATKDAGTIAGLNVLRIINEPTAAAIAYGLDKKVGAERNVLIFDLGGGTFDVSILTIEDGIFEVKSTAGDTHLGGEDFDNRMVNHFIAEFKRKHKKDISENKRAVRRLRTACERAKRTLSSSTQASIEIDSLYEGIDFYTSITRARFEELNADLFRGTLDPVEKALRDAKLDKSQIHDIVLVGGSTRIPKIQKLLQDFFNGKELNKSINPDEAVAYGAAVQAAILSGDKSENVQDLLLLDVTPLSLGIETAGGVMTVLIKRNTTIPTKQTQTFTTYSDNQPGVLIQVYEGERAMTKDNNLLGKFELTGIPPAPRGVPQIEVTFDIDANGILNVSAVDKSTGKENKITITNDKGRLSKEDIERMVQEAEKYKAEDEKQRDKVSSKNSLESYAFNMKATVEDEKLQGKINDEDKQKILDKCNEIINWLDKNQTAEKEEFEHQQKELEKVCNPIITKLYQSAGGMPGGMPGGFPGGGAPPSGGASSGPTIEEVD

[14] = target: Heat shock 70 kDa protein 1A (Homo sapiens, UniProt P0DMV8); test: Hsp70 inhibitors, SAR follow-up, biochemical, fluorescence polarization (AID 1072)
Heat shock 70 kDa protein 1A, sequence (P0DMV8 whole entry): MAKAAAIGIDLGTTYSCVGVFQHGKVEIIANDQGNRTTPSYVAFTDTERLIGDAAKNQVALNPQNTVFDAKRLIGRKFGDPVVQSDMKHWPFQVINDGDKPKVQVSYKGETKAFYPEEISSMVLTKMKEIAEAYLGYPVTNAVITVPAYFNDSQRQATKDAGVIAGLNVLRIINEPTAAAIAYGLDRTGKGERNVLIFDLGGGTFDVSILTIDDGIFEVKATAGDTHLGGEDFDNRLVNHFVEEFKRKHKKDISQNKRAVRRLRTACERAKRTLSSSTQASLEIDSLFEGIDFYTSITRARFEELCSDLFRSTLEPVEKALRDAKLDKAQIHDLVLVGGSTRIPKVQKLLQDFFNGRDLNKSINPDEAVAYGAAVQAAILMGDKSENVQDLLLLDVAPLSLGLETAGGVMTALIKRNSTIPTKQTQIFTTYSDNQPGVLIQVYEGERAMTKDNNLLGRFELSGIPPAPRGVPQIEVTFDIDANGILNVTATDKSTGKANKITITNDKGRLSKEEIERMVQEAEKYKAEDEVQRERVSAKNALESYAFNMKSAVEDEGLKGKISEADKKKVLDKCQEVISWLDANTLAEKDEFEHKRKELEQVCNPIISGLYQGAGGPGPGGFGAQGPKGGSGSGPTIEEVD

[15] = target: T6, Tyrosine-protein phosphatase non-receptor type 7 (Homo sapiens, UniProt P35236); test: redox-dependent HePTP inhibition, mechanism study, biochemical, fluorescence (AID 2068); type: functional
T6 sequence (P35236 whole entry): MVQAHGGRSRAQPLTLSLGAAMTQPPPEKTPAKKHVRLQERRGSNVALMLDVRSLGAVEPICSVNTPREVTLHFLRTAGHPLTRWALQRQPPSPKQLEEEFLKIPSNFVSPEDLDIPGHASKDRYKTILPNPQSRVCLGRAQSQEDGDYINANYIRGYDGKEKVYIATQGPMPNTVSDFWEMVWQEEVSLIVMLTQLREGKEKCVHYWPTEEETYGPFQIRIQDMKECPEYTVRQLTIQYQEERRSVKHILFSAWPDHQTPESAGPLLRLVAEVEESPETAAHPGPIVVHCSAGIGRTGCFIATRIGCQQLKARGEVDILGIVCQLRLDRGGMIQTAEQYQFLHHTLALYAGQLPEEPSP

[16] = target: T6, Tyrosine-protein phosphatase non-receptor type 7; type: functional
[17] = target: T7, Dual specificity protein phosphatase 6 (Rattus norvegicus, UniProt Q64346);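 further: in vitro confirmatory secondary MKP-3 assay designed to detect irreversible or slow-binding inhibitors; recombinant His-tagged rat MKP-3 acting on the substrate OMFP; inhibitor potency from reduced phosphatase rate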
T7 sequence (Q64346 whole entry): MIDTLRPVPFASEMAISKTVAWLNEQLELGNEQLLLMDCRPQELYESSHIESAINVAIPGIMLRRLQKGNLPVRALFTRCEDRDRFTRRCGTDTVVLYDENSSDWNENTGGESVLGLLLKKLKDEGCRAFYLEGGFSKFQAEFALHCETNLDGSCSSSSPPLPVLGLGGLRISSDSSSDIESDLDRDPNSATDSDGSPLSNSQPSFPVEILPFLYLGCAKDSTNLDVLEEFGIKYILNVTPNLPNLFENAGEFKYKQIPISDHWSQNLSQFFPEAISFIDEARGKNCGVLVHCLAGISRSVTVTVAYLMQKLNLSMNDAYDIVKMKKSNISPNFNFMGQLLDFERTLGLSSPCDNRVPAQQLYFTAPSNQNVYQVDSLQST

[18] = target: T8, Trace amine-associated receptor 1 (Homo sapiens, UniProt Q96RJ0); test: Counterscreen for agonists of the human trace amine associated receptor 1 (hTAAR1): Fluorescence-based cell-based high throughput dose response assay to identify hTAAR1 agonist that also desensitize TAAR1 receptor response.; type: functional
T8 sequence (Q96RJ0 whole entry): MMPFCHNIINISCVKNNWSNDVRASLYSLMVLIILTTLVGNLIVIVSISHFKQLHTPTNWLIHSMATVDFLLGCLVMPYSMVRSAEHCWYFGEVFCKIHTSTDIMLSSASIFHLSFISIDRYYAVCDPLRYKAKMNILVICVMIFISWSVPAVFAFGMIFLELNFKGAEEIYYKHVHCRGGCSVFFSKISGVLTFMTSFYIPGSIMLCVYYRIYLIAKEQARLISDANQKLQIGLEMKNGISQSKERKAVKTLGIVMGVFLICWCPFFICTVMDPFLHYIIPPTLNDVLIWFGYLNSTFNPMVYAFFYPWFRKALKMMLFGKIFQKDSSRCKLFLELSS

cells [19] = type: functional, cell-based
[20] = target: T8, Trace amine-associated receptor 1; test: Fluorescence-based cell-based high throughput dose response assay to identify agonists of the human trace amine associated receptor 1 (TAAR1).; type: functional
Coagulation factor XII = Coagulation factor XII (Homo sapiens, UniProt P00748); test: FXIIa inhibitor potency, concentration-response, biochemical (AID 716); type: functional
Coagulation factor XII, sequence (P00748 20-372 limits assumed): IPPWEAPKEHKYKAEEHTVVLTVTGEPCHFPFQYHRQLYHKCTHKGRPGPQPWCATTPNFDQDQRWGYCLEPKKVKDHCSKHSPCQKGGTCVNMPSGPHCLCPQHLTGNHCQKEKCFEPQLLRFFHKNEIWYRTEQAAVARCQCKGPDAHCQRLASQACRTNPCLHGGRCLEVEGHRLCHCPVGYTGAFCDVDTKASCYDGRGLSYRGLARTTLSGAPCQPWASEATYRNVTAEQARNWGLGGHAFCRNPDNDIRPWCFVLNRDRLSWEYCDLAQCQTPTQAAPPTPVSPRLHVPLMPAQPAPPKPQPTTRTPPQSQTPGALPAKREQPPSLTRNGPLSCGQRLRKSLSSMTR
Coagulation factor XII, sequence (P00748 373-615 limits assumed): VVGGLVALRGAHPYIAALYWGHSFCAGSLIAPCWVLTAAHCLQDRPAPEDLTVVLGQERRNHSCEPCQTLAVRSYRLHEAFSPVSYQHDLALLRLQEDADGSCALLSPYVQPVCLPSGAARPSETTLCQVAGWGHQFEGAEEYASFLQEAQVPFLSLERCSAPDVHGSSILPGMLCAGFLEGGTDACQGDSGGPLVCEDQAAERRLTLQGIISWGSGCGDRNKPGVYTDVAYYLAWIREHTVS

cells [21] = type: functional, cell-based; remark: listed apart in the source

Hexokinase, sequence (Q38C41 whole entry, the tested form may be a part): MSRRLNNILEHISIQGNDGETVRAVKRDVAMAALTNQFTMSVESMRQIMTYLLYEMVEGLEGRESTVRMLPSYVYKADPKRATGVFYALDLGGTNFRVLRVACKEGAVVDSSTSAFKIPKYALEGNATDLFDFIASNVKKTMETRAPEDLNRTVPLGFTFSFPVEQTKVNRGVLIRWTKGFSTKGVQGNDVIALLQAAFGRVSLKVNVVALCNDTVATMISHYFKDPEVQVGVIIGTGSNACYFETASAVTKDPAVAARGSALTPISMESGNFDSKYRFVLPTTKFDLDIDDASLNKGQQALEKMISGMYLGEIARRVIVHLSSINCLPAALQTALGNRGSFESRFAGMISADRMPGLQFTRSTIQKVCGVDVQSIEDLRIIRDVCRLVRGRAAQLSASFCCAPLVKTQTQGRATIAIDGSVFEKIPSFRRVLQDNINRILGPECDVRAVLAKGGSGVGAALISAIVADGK

CCc1ccc(C(=O)Nc2cc(Cl)ccc2C(=O)O)cc1
IC50 (Hexokinase): 3.04 µM (active)

COc1cc2c3nnc(-c4ccccc4)c-3cn(Cc3ccccc3F)c2cc1OC
EC50 [1]: > 300 µM (not active)
EC50 [2]: 5.8 µM (active)
EC50 [3]: > 300 µM (inconclusive)
EC50 [4]: > 99 µM (inactive)
EC50 [5]: 0.807 µM (active)
EC50 [6]: 34.6 µM (inactive)

COc1cc(CN2CCC(n3nccc3NC(=O)CCCc3ccccc3)CC2)ccc1F
EC50 [7]: 79.7 µM (active)
EC50 [8]: 68.7 µM (active)
EC50 [9]: 58.2 µM (active)
EC50 [10]: 66.1 µM (active)

O=C1c2ccccc2CC1Sc1nnc(-c2ccco2)c(-c2ccco2)n1 (stereo not drawn)
IC50 [11]: 27.9 µM (active)
IC50 [12]: > 100 µM (not active)
IC50 [13]: > 100 µM (not active)
IC50 [14]: > 100 µM (not active)
IC50 [15]: 1.12 µM (active)
IC50 [16]: 8.11 µM (active)
IC50 [17]: 42.1 µM (active)

O=C(O)C1CCCCC1C(=O)NCCc1ccccc1 (stereo not drawn)
IC50 [18]: 8.04 µM (active)
EC50 (cells [19]): > 29.9 µM (inactive)
EC50 [20]: 1.42 µM (active)
IC50 (Coagulation factor XII): > 50 µM (inactive)
IC50 (cells [21]): > 29.9 µM (inactive)
